Patent publication US20050222312A1, “Antioxidant and antimicrobial agents and methods of use thereof” (priority 2002, published 2005)

Assays:
forestomachs of rats = conditions: Nera et al., Toxicology 32:197-213 (1984); cited from earlier work
E. coli O157:H7 = assay: liquid culture growth inhibition assay; format: cell-based, Escherichia coli O157:H7; conditions: all strains tested, 24 and 48 hrs
Procedure: (§1) For these experiments, three strains of Listeria monocytogenes (CWD 95, CWD 246 and CWD 201), three strains of Escherichia coli O157:H7 (AR, AD 305, and AD 317), Salmonella typhimurium (clinical DT 104 isolate H3380), Salmonella enteritidis (clinical isolate H3527, phage type 13A) and Salmonella heidelberg (clinical isolate F5038BG1, Maryland outbreak) were obtained. All strains were stored at −70° C., in Trypticase soy broth containing 10% (v/v) glycerol. Thawed strains were subcultured three times in Trypticase soy broth containing 0.6% (w/v) yeast extract (TSB-YE) (Difco Laboratories, Detroit, Mich.) at 35° C., 18 to 24 h before use.
(§2) For these experiments, sub-cultured bacteria (10^8 cfu Salmonella; 10^9 cfu Listeria monocytogenes and 10^9 cfu E. coli) were each added to culture tubes containing TSB-YE. Three strains of each bacterial species were used, and 1,2,3,4-tetrahydroxybenzene was added to concentrations ranging from 1.4 mM to 14 mM. Three culture tubes were used for each 1,2,3,4-tetrahydroxybenzene concentration. The samples were incubated at 35° C. and observation of growth was recorded at 24 and 48 hrs. Results were reported as the number or tubes positive or negative for growth at 24 h and 48 h.

Listeria monocytogenes [1] = assay: liquid culture growth inhibition assay; format: cell-based; conditions: all strains tested, 24 and 48 hrs
Procedure: as §1, §2

Salmonella cocktail = assay: liquid culture growth inhibition assay; format: cell-based
Procedure: as §1, §2

Salmonella enteritidis = assay: liquid culture growth inhibition assay; format: cell-based; conditions: all strains tested, 24 and 48 hrs
Procedure: as §1, §2

Salmonella heidelberg = assay: liquid culture growth inhibition assay; format: cell-based; conditions: all strains tested, 24 and 48 hrs
Procedure: as §1, §2

Salmonella typhimurium [2] = assay: liquid culture growth inhibition assay; format: cell-based; conditions: all strains tested, 24 and 48 hrs
Procedure: as §1, §2

Escherichia coli = assay: inhibition zone experiment (pour plate, filter disc); format: cell-based; conditions: 24 hrs, FIG. 3
Procedure: as §1
(§3) To test antimicrobial activity of 1,2,3,4-tetrahydroxybenzene, a pour plate technique was used in which 200 μl samples of subcultured bacteria (either […] colony forming units (CFU)/ml of Salmonella, 109 CFU/ml of L. monocytogenes or 10^9 CFU/ml of E. coli) were transferred to a Petri dish (100 mm×15 mm) to which 20 ml of Trypticase soy agar containing 0.6% (w/v) yeast extract (TSA-YE) was added. The contents of each Petri dish was then mixed by gently forming figure eights with the dish against the bench top. Separately, solutions of 1,2,3,4-tetrahydroxybenzene were prepared at the following concentrations: 1.4 M, 0.14 M, 0.014 M, 0.0014 M, and 0.00014 M. 16 mm filter discs comprising 1,2,3,4-tetrahydroxybenzene each then received 50 μl of a solution comprising one concentration of 1,2,3,4-tetrahydroxybenzene. A single 16 mm disc comprising 50 μl of one concentration of 1,2,3,4-tetrahydroxybenzene was then placed aseptically in the center of each Petri dish. The Petri dishes were then incubated at 35° C. Zones of growth inhibition were determined by observation at 24 hrs. All tests were run in triplicate and averaged.

Listeria monocytogenes [3] = assay: as above; format: cell-based; conditions: 24 hrs, FIG. 3
Procedure: as §1, §3

Salmonella typhimurium [4] = assay: as above; format: cell-based; conditions: 24 hrs, FIG. 3
Procedure: as §1, §3

[5] = antioxidant activity, peroxide value of corn oil; conditions: 0.01% w/w (100 ppm), 60° C., FIG. 1
Procedure: (§4) Aliquots of corn oil stripped of endogenous antioxidants were mixed with either 1,2,3,4-tetrahydroxybenzene (OH-Bz), or with a known antioxidant chosen from propyl gallate (PG), tert-butylhydroquinone (TBHQ), and α-tocopherol (Toc). Each antioxidant was at a concentration of 0.01% w/w (i.e., 100 ppm). The mixtures (as well as controls) were maintained at 60° C. Samples of each mixture were removed at a series of time points over a period of 28 days, and the peroxide value of each sample was measured using standard laboratory techniques (FIG. 1). Similarly, aliquots of lard were mixed with either 1,2,3,4-tetrahydroxybenzene (OH-Bz), or with a known antioxidant chosen from propyl gallate (PG), tert-butylhydroquinone (TBHQ), and α-tocopherol (Toc). Each antioxidant was at a concentration of 0.01% w/w. The mixtures (as well as controls) were maintained at 60° C. Samples of each mixture were removed at a series of time points over a period of 26 days, and the peroxide value of each sample was measured using standard laboratory techniques (FIG. 2).

[6] = antioxidant activity, peroxide value of lard; conditions: 0.01% w/w, 60° C., FIG. 2
Procedure: as §4

[7] = 50 μl at 1.4 M or 0.14 M on 16 mm filter disc
[8] = concentrations lower than 0.14 M, 16 mm filter disc

Compound	carcinogenicity (forestomachs of rats)	concentration at which complete inhibition occurred (E. coli O157:H7) [mM]	concentration at which complete inhibition occurred (Listeria monocytogenes [1]) [mM]	concentration at which complete inhibition occurred (Salmonella cocktail) [mM]	concentration at which complete inhibition occurred (Salmonella enteritidis) [mM]	concentration at which complete inhibition occurred (Salmonella heidelberg) [mM]	concentration at which complete inhibition occurred (Salmonella typhimurium [2]) [mM]	zones of growth inhibition (Escherichia coli; [7])	zones of growth inhibition (Escherichia coli; [8])	zones of growth inhibition (Listeria monocytogenes [3]; [7])	zones of growth inhibition (Listeria monocytogenes [3]; [8])	zones of growth inhibition (Salmonella typhimurium [4]; [7])	zones of growth inhibition (Salmonella typhimurium [4]; [8])	antioxidant activity (peroxide value) ([5]; 28 days)	period over which antioxidant activity is maintained [5]	antioxidant activity (peroxide value) ([6]; 26 days)	period over which antioxidant activity is maintained [6]
COc1ccc(O)c(C(C)(C)C)c1 [BHA, butylated hydroxyanisole]	implicated as a carcinogen promoting formation of tumors in the forestomachs of rats																
Oc1ccc(O)c(O)c1O [THB, 1,2,3,4-tetrahydroxybenzene]		≥ 5.6	≥ 5.6	≥ 5.6	≥ 5.6	≥ 5.6	≥ 5.6	led to appearance of zones of inhibition	did not form zones of inhibition greater than the diameter of the filter	led to appearance of zones of inhibition	did not form zones of inhibition greater than the diameter of the filter	led to appearance of zones of inhibition	did not form zones of inhibition greater than the diameter of the filter	highly effective antioxidant, equal or superior to PG, TBHQ, PG, and α-tocopherol	at least 26 days	highly effective antioxidant, equal or superior to PG, TBHQ, PG, and α-tocopherol	at least 26 days
